Assay results from patent US9510598B2, “Nitrogen-containing heterocyclic compounds for plant disease control” (BAYER CROPSCIENCE AG, priority 2012, dated 2016).
Read-outs that look alike come from different tables or passages of the source.

Columns and labels:
[1] = tested on: Puccinia recondita; test: In vivo preventive test on Puccinia recondita (brown rust on wheat); details: 500 ppm; wheat plants sprayed 24 hours before contamination; grading 10 days after contamination vs control plants
Protocol: Wheat plants (“Scipion” variety), sown in starter cups on a 50/50 peat soil-pozzolana substrate and grown at 22° C. (12 h)/20° C. (12 h), are treated at the 1-leaf stage (10 cm height) by spraying with the active ingredient prepared as described above. Plants, used as controls, are treated with the mixture of acetone/tween/DMSO/water not containing the active material. After 24 hours, the plants are contaminated by spraying the leaves with an aqueous suspension of Puccinia recondita spores (100 000 spores per ml).

[2] = tested on: Botrytis cinerea; test: In vivo preventive test on Botrytis cinerea (grey mould); details: 500 ppm; gherkin plants sprayed 24 hours before contamination; grading 4-5 days after contamination vs control plants
Procedure, shortened: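 Gherkin plants ("Vert petit de Paris") sprayed with compound at Z11 cotyledon stage, then inoculated 24 h later with B. cinerea spores (50 000/ml) in PDB/fructose/NH4NO3/KH2PO4 nutrient solution. Incubated at 17 °C, 80% RH; % efficacy versus solvent-treated controls graded 4–5 days after contamination.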

[3] = format: physicochemical
[4] = tested on: Septoria tritici; test: In vivo preventive test on Septoria tritici (leaf spot on wheat); details: 500 ppm; wheat plants sprayed 24 hours before contamination; grading 21 to 28 days after contamination vs control plants
Procedure, shortened: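 Scipion wheat at 1-leaf stage sprayed with compound, controls receiving acetone/tween/DMSO/water vehicle; 24 h later leaves inoculated with Septoria tritici spores (500 000 spores per ml). Efficacy (%) graded versus control plants 21 to 28 days after contamination.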

[5] = tested on: Sphaerotheca fuliginea; test: In vivo preventive test on Sphaerotheca fuliginea (powdery mildew on cucurbits); details: 500 ppm; gherkin plants sprayed 24 hours before contamination; grading 12 days after contamination vs control plants
Procedure, shortened: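 Preventive spray of gherkin plants at Z11 cotyledon stage, grown at 24° C; inoculation 24 hours later with Sphaerotheca fuliginea spores (100 000 spores per ml). Efficacy graded 12 days post-inoculation as % versus solvent-treated control plants.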

[6] = tested on: Uromyces appendiculatus; test: In vivo preventive test on Uromyces appendiculatus (bean rust); details: 500 ppm; bean plants sprayed 24 hours before contamination; grading 10 days after contamination vs control plants
Protocol: Bean plants (“Saxa” variety), sown in starter cups on a 50/50 peat soil-pozzolana substrate and grown at 24° C., are treated at the 2-leaf stage (9 cm height) by spraying with the active ingredient prepared as described above. Plants, used as controls, are treated with the mixture of acetone/tween/DMSO/water not containing the active material. After 24 hours, the plants are contaminated by spraying the leaves with an aqueous suspension of Uromyces appendiculatus spores (150 000 spores per ml).

[7] = tested on: Phytophthora infestans; format: in vivo; details: 500 ppm; tomato plants sprayed 24 hours before contamination; grading 5 days after contamination vs control plants
[8] = tested on: Alternaria brassicae; test: In vivo preventive test on Alternaria brassicae (leaf spot on radish); details: 500 ppm; radish plants sprayed 24 hours before contamination; grading 5 days after contamination vs control plants
Protocol: Radish plants (“Pernod Clair” variety), sown in starter cups on a 50/50 peat soil-pozzolana substrate and grown at 17° C., are treated at the 2-leaf stage by spraying with the active ingredient prepared as described above. Plants, used as controls, are treated with the mixture of acetone/tween/DMSO/water not containing the active material. After 24 hours, the plants are contaminated by spraying the leaves with an aqueous suspension of Alternaria brassicae spores (50 000 spores per ml). The spores are collected from a 15-day-old culture. […] Grading (% of efficacy) is carried out 5 days after the contamination, in comparison with the control plants.

[9] = method [a]: HPLC/LC-MS on reversed phase at pH 2.7, 0.1% formic acid in water / acetonitrile, gradient 10% to 95% acetonitrile
[10] = HPLC on reversed phase columns, method [a]: pH 2.7, 0.1% formic acid in water / acetonitrile, linear gradient 10% to 95% acetonitrile
[11] = method [a]: HPLC/LC-MS on reversed phase at pH 2.7, 0.1% formic acid in water / acetonitrile, linear gradient 10% to 95% acetonitrile

Structure (SMILES)	% of efficacy (protection) [1] [%]	% of efficacy (protection) [2] [%]	log P [3, 9]	% of efficacy (protection) [4] [%]	% of efficacy (protection) [5] [%]	% of efficacy (protection) [6] [%]	log P [3, 10]	% of efficacy (protection) [7] [%]	log P [3, 11]	log P ([3]; HPLC on reversed phase columns, method [a]: pH 2.7, 0.1% formic acid in water and acetonitrile, linear gradient 10% to 95% acetonitrile)	% of efficacy (protection) [8] [%]
CCOCCCNC(=O)C1(C)CC(c2ccc3ncc(I)cc3c2)=NO1 (racemic) [compound 456]	83	98	2.86[a]	100	98						
CC(C)NC(=O)C1(C)CC(c2ccc3ncc(-c4ccco4)cc3c2)=NO1 (racemic) [compound 382]	79		2.77[a]			89					
Cn1cc(NC(=O)C2(C)CC(c3ccc4ncc(Br)cc4c3)=NO2)cn1 (racemic) [compound 434]	88		2.17[a]	100		97					
C#Cc1cnc2ccc(C3=NOC(C)(C(=O)NCc4ccsc4)C3)cc2c1 (centres unmarked) [compound 515]		100		97	93	91	2.71[a]				
C#Cc1cnc2ccc(C3=NOC(CC)(C(=O)NCC4COC(C)(C)O4)C3)cc2c1 (mixture of isomers) [compound 441]	83		2.66[a]	100	94	91					
C#Cc1cnc2ccc(C3=NOC(CC)(C(=O)NC4CCC4)C3)cc2c1 (racemic) [compound 447]	89	97	2.94[a]	75	75	100					
C#Cc1cnc2ccc(C3=NOC(OC)(C(=O)NC4CC4)C3)cc2c1 (centres unmarked) [compound 504]	72	99	2.08[a]	100	100						
CCn1cc(CNC(=O)C2(C)CC(c3ccc4ncc(C)cc4c3)=NO2)c(C)n1 (centres unmarked) [compound 257]	81						1.46^[a]	100			
COC1(C(=O)NC2CC2)CC(c2ccc3ncc(I)cc3c2)=NO1 (racemic) [compound 450]	89	100	2.48[a]	98	98	91					
CC(C)NC(=O)C1(C)CC(c2ccc3ncc(S(C)(=O)=O)cc3c2)=NO1 (centres unmarked) [compound 146]	72							85	1.81^[a]		
COC1(C(=O)NC2CCC2)CC(c2ccc3ncc(Br)cc3c2)=NO1 (centres unmarked) [compound 414]	89	100	2.84[a]	100	98	100					
CCn1cc(CNC(=O)C2(C)CC(c3cc(Cl)c4ncc(Br)cc4c3)=NO2)c(C)n1 (racemic) [compound 548]	83	94		100	80		2.77[a]				
COCC(COC)NC(=O)C1(C)CC(c2ccc3ncc(Br)cc3c2)=NO1 (centres unmarked) [compound 305]						80	2.56[a]				
CCCn1cc(CNC(=O)C2(OC)CC(c3cc(Cl)c4ncc(Br)cc4c3)=NO2)c(C)n1 (centres unmarked) [compound 567]	75	100		100	100		3.08[a]				
C#Cc1cnc2ccc(C3=NOC(C=C)(C(=O)NCc4cn(CC)nc4C)C3)cc2c1 (centres unmarked) [compound 724]	71	98		100	100			100		2.37[a]	
CC(NC(=O)C1(C)CC(c2ccc3ncc(Br)cc3c2)=NO1)c1ccccn1 (centres unmarked) [compound 205]		84		100	75	70			2.14^[a]		
CSC1(C(=O)NC(C)C)CC(c2ccc3ncc(Br)cc3c2)=NO1 (centres unmarked) [compound 530]	79	100					2.88[a]				
CCCn1cc(CNC(=O)C2(OC)CC(c3ccc4ncc(Br)cc4c3)=NO2)c(C)n1 (centres unmarked) [compound 50]	88	100		100	100			100			
CCn1cc(CNC(=O)C2(C)CC(c3ccc4ncc(OC)cc4c3)=NO2)c(C)n1 (centres unmarked) [compound 135]	89			100					1.83^[a]		100
C#Cc1cnc2ccc(C3=NOC(CC)(C(=O)NC(C)C)C3)cc2c1 (racemic) [compound 446]	83	98	2.76[a]	100	94						
CC(C)NC(=O)C1(C(F)F)CC(c2ccc3ncc(Br)cc3c2)=NO1 (centres unmarked) [compound 480]	90					83					
CCn1cc(CNC(=O)C2(C)CC(c3ccc4ncc(-c5cncnc5)cc4c3)=NO2)c(C)n1 (centres unmarked) [compound 265]	88					96	1.62^[a]				
C#Cc1cnc2c(C)cc(C3=NOC(C)(C(=O)NCC4COC(C)(C)O4)C3)cc2c1 (centres unmarked) [compound 536]	72	100		100	100		2.98[a]				
C/C(=N\O)C1(C(=O)NC(C)C)CC(c2ccc3ncc(Br)cc3c2)=NO1 (centres unmarked) [compound 420]	94		2.58[a]			97					
C#CC1(NC(=O)C2(C)CC(c3ccc4ncc(Br)cc4c3)=NO2)CCCCC1 (centres unmarked) [compound 237]						80	3.9^[a]				71
CCn1cc(CNC(=O)C2(C(F)F)CC(c3ccc4ncc(I)cc4c3)=NO2)c(C)n1 (centres unmarked) [compound 617]	71	95			100		2.73[a]				
CCn1cc(CNC(=O)C2(C)CC(c3ccc4ncc(-c5ccccc5)cc4c3)=NO2)c(C)n1 (centres unmarked) [compound 140]	81			80	83	96			2.63^[a]		
C=CC1(C(=O)NCc2cn(CC)nc2C)CC(c2ccc3ncc(Br)cc3c2)=NO1 (centres unmarked) [compound 599]	88	100		100	100		2.61[a]	85			
CC(C)NC(=O)C1(C)ON=C(c2ccc3ncc(Br)cc3c2)C1C(F)(F)F (centres unmarked) [compound 423]	78		3.71[a]								83
